According to article PMC10298982, “Stability Characterization of the Novel Anti-Cancer HM-10/10 HDL-Mimetic Peptide” (International Journal of Molecular Sciences, 2023):
Ends that are not written are not given here.

How the values were obtained:
CYP2B6 = CYP2B6 induction (enzyme activity) in single-donor human hepatocytes; conditions: for Fold Increase (Enzyme Activity) Mean: mean of three lots
Method: The transport medium was replaced with 200 μL of warm (37 °C) incubation medium (InVitroGRO HI, BioIVT Catalog No. Z99009) and the plate was placed in a humidified 5% carbon dioxide incubator at 37 °C for 24 h.
In addition, test article vehicle (PBS) was added to warm (37°C) InVitroGRO HI Medium in a 5:95 (v:v) ratio. […] The plates were removed from the incubator and the hepatocytes were prepared for the induction assay by replacing the cell culture medium with medium containing either the test article, a control inducer, or vehicle control (200 µL per well). The hepatocyte plates were returned to the cell culture incubator and incubated for 24 h.
On Day 3, induction was repeated following the same steps as described above for the previous day, and plates were returned to the cell culture incubator for an additional 24 h.
After aliquots were taken to measure test article stability, all the remaining medium from each well in the hepatocyte plate was removed, all wells were washed once using 200 μL of blank assay buffer, and then 100 μL of the 1000-fold diluted substrate solutions were added to the appropriate wells. The assay plate was returned to the humidified 5% carbon dioxide incubator at 37 °C for 1 h incubation.
At the end of the incubation time, 100 μL of mRNA lysis buffer was added to each well to stop the reaction. Fifty microliters of this reaction mixture were transferred into a new plate and quenched with 200 μL of ice-cold acetonitrile containing a CYP-specific stable labeled internal standard (250 ng/mL acetaminophen-d4, 250 ng/mL hydroxybupropion-d6, or 250 ng/mL hydroxytestosterone-d3). After removal of the aliquots from the plate for enzyme activity determination, the assay plates were sealed and stored in a −70 °C freezer until use for RT-PCR, mRNA analysis.
For the induction assay samples, an aliquot (50 µL) of the supernatant was transferred to a new plate and diluted with 100 µL Milli-Q water. For the test article stability samples, an aliquot (50 µL) of the supernatant was transferred to a new plate and diluted with 60 µL 0.1% formic acid in Milli-Q water. These samples for the enzyme activity assay and article stability test were refrigerated for storage until analysis. […]
HM1010: Induction Potential of Cytochrome P450 Enzymes
(CYP1A2, CYP2B6 and CYP3A4) Using Human Cryopreserved Hepatocytes
Testing Facility Study No.
The purpose of this in-vitro study was to determine the induction potential of HM1010 on human
cytochrome P450 (CYP) isoenzyme (1A2, 2B6 and 3A4) activity. The study design is
Matrix: Inducible cryopreserved human hepatocytes three single-donor lots
Assay Buffer: InVitroGRO KHB
Substrates: Phenacetin (1A2), Bu propion (2B6), and Testosterone (3A4)
Assay conditions: 48 hours at 37°C in humidified 5% carbon dioxide incubator
Analysis: LC-MS/MS (enzyme activity) and mRNA analysis

CYP2C19 = CYP2C19 (Homo sapiens, UniProt P33261); conditions: microsomes
Sequence of CYP2C19 (P33261 whole entry): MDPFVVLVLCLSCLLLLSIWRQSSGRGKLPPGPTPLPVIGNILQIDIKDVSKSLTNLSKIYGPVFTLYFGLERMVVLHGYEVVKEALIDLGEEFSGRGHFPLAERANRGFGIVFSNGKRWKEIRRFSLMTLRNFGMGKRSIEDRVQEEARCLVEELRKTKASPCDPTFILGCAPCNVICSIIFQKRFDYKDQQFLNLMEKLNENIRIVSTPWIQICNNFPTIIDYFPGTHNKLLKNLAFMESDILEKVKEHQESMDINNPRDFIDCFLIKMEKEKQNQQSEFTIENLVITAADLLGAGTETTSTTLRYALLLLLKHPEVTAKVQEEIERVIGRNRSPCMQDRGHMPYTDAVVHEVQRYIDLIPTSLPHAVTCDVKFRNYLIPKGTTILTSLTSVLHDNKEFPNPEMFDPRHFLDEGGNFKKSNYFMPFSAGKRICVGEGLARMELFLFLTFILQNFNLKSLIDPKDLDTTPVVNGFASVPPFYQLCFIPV

[1] = Protein binding in cynomolgus monkey plasma (ultracentrifugation); conditions: plasma (K2EDTA), pH 7.4
[2] = tested on: beagle dog plasma proteins; experiment: Protein binding in beagle dog plasma (ultracentrifugation); conditions: Beagle dog plasma (K2EDTA); 2 μM; 2.5 h at 37 °C
[3] = as above; conditions: beagle, dog, plasma (K2EDTA), pH 7.4
in vitro = conditions: CD-1, mouse, plasma, pH 7.4
Method: Samples were tested at 2 μM.
The supernatant was removed and incubated at 37 °C for at least 10 min before use. The pH of each matrix was checked and adjusted to pH 7.4 using 10% phosphoric acid or 1 N sodium hydroxide as necessary.
Test and control article stock solutions were spiked (1.5 µL) into matrix (0.749 mL) to a final assay concentration of 2 µM and mixed. […] These tubes were sealed and incubated at 37 °C with shaking.
The quenched samples were mixed briefly by vortexing and stored in a −20 °C freezer.
Sample plates were stored refrigerated until analysis.
The column was set to a temperature of 55 °C. […] The instrument was equipped with an electrospray ionization source (500 °C) operated in positive-ion mode.
Peak area ratios for IS-normalized test article and control article counts were used to calculate the percent remaining relative to the time zero (T0) value. As appropriate, results were plotted and further analyzed to calculate half-life (T1/2) values.
Mean peak ratios were used to calculate the percent remaining relative to the T0 value: % Remaining at Timex = (mean peak area ratio Tx/mean peak ratio T0) × 100.

[4] = Metabolic stability in human liver microsomes; assay type: in vitro ADME
CYP1A2 = CYP1A2 induction (mRNA expression) in single-donor human hepatocytes; assay type: in vitro ADME
Method: RNA isolation and quantification: E-Z 96 Total RNA Kit (Omega Bio-tek, Catalog No. R1034-02) was used for RNA isolation and Quant-iT RNA assay kit (ThermoFisher, Catalog No. Q33140) was used for RNA quantification. The plates were removed from a −80 °C freezer and equilibrated to room temperature. RNA was extracted using the manufacturer’s recommended protocol. Eighty-one microliters of 100% ethanol were added into each well containing 150 µL of lysed sample to make a final ethanol concentration at 35%.
cDNA generation: For cDNA generation, a High-Capacity cDNA Reverse Transcription Kit (Applied Biosystems, Catalog No. 4319983) and QuantStudio 3 PCR system (Applied Biosystems) were used. In this step, 2X Reverse Transcription Master Mix was prepared using the contents of the kit. Then, 10 µL of total RNA was added to 10 µL of 2X Reverse Transcription Master Mix in a microplate and the plate was sealed. This plate was then run in a thermocycler to generate cDNA.
Real time PCR: SsoAdvanced Universal SYBR® Green Supermix (BIO-RAD, Catalog No. 172-5270) and the QuantStudio 3 Real-Time PCR system (Applied Biosystems) were used to perform real-time PCR on the generated cDNA. In this step, a PCR mix was prepared using PCR Supermix, SYBR® primers for the targeted genes, and nuclease-free water. Two microliters of ten-fold diluted cDNA samples (5 µL of cDNA into 45 μL of nuclease-free water) were added to 8 µL of PCR Mix in a microplate and sealed. This plate was then run through the Real-Time PCR system to generate the mRNA expression data.
• Human GAPDH • F: […] • R: […] • Human CYP1A2 • Unique Assay ID: qHsaCID0015160 • Chromosome Location: 15:75045562-75047256 • Human CYP2B6 • F: […] • R: […] • Human CYP3A4 • F: […] • R: […]

## LRKLRKRLLRLVGRQLEEFL [HM-10/10, LRKLRKRLLRLVGRQLEEFL]
CYP2B6; 2 µM
  Fold Increase (Enzyme Activity) Lot HH1086: 3.18 fold
  Fold Increase (Enzyme Activity) Lot HH1142: 2.82 fold
  Fold Increase (Enzyme Activity) Lot HH1144: 3.00 fold
  Fold Increase (Enzyme Activity) Mean: 3.00 fold
CYP2B6; 10 µM
  Fold Increase (Enzyme Activity) Lot HH1086: 4.01 fold
  Fold Increase (Enzyme Activity) Lot HH1142: 6.36 fold
  Fold Increase (Enzyme Activity) Lot HH1144: 4.52 fold
  Fold Increase (Enzyme Activity) Mean: 4.96 fold
CYP2B6; 25 µM
  Fold Increase (Enzyme Activity) Lot HH1086: 2.80 fold
  Fold Increase (Enzyme Activity) Lot HH1142: 9.29 fold
  Fold Increase (Enzyme Activity) Lot HH1144: 6.73 fold
  Fold Increase (Enzyme Activity) Mean: 6.27 fold
CYP2C19
  % Inhibition at 50 µM No PI + NADPH: −26.4%
  % Inhibition at 50 µM No PI − NADPH: −9.4%
  % Inhibition at 50 µM PI + NADPH: −6.0%
  % Inhibition at 50 µM PI − NADPH: 19.9%
[1]; cynomolgus monkey
  fraction unbound at 2.5 h, 2 µM: 0.736 ± 0.216
[1]; monkey
  remaining at 2.5 h, 2 µM: 25.9%
[2]
  % Protein Bound Mean ± SD: 35.2 ± 26.5%
  % Protein Free Mean ± SD: 64.8 ± 26.5%
[3]
  fraction unbound at 2.5 h, 2 µM: 0.648 ± 0.265
  remaining at 2.5 h, 2 µM: 29.2%
In vitro
  half-life at 2 µM: 5.68 min
  remaining at 2 h, 2 µM: 23.9%
[4]; Human liver microsomes 0.5 mg protein/mL, 2 μM
  CLint scaled: 61.5 mL/min/kg
[4]; pooled liver microsomes, pH 7.4, Human liver microsomes 0.5 mg protein/mL
  half-life at 2 µM: 20.3 min
[4]; pooled liver microsomes, pH 7.4, Human liver microsomes 0.5 mg protein/mL, read-out: % Remaining at 120 min
  remaining at 2 h, 2 µM: 1.4%
CYP1A2; 2 µM
  Fold Increase (mRNA Expression) Lot HH1086: 1.69 fold
  Fold Increase (mRNA Expression) Lot HH1142: 2.24 fold
  Fold Increase (mRNA Expression) Lot HH1144: 1.81 fold
  Fold Increase (mRNA Expression) Mean of 3 Lots: 1.91 fold
CYP1A2; 10 µM
  Comments (mRNA induction): Induction Observed
  Fold Increase (mRNA Expression) Lot HH1086: 2.75 fold
  Fold Increase (mRNA Expression) Lot HH1142: 3.24 fold
  Fold Increase (mRNA Expression) Lot HH1144: 1.75 fold
  Fold Increase (mRNA Expression) Mean of 3 Lots: 2.58 fold
CYP1A2; 25 µM
  Comments (mRNA induction): Induction Observed
  Fold Increase (mRNA Expression) Lot HH1086: 2.74 fold
  Fold Increase (mRNA Expression) Lot HH1142: 3.01 fold
  Fold Increase (mRNA Expression) Lot HH1144: 1.13 fold
  Fold Increase (mRNA Expression) Mean of 3 Lots: 2.29 fold
